Results reported in US8354400B2, “Benzoxazole compounds and methods of use” (Eisai R&D Co., Ltd., priority 2008, dated 2013).

Tests used:
Type in all cases: cell-based
[1] = target: T1, human TLR9 (Homo sapiens, UniProt Q9NR96); test: Primary assay: HEK/TLR9 activation (NF-kB luciferase reporter, Oligo CpG 2006 stimulation); details: HEK293 transfected with human TLR9 and NF-kB luciferase; compound 30 min before Oligo CpG 2006; overnight; read-out: HEK/TLR9 IC50
T1 construct: expressed in transfected cells; host or cells: HEK293 (ATCC No. CRP-1573 [sic])
T1 sequence (Q9NR96 26-1032): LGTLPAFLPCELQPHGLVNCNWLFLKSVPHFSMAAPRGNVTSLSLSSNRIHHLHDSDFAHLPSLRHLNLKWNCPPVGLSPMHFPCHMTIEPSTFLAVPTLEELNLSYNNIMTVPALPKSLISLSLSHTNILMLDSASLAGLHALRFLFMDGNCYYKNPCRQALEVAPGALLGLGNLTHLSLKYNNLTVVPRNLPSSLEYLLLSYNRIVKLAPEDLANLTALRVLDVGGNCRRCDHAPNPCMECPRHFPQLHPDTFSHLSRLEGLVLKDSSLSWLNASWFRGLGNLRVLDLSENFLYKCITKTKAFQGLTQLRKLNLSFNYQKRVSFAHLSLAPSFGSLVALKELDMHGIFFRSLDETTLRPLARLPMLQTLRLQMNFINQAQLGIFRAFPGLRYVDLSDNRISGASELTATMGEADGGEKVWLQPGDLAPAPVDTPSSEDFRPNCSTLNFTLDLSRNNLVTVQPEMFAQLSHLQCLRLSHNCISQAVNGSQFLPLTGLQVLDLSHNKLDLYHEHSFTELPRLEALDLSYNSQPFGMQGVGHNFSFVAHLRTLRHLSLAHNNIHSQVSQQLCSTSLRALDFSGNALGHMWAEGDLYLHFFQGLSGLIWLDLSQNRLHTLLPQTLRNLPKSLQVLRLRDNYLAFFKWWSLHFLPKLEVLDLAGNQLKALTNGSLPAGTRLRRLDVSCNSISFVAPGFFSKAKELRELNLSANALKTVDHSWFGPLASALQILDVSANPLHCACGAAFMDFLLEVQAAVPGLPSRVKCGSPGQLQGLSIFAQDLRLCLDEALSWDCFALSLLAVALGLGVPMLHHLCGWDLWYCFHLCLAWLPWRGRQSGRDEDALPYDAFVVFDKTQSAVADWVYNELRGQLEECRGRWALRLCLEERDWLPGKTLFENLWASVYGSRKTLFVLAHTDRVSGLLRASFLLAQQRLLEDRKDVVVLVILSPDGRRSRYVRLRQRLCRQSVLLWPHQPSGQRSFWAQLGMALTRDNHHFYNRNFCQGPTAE
From the text: A. Primary Assay. The primary assay involved transfecting human embryonic kidney epithelial (HEK) cells with TLR9. More specifically, HEK293 […] cells (ATCC No. CRP-1573, American Type Culture Collection, Manassas, Va.) were transfected with pcDNA3.1D/V5-His-TOPO® plasmid (Invitrogen, Carlsbad, Calif.) encoding human TLR9 (directly inserted as a Tag polymerase-amplified PCR product) and firefly luciferase under the control of three NF-kB binding sites contained in the E-selectin-1 promoter, which was cloned into a pGL3-Enhancer Vector (Promega Corp, Madison, Wis.). Each compound was added to cells 30 min. before stimulation with Oligo CpG 2006, a synthetic phosphorothioate oligonucleotide (Hartmann et al., J Immunol. 164:1617-24 (2000)), with nucleotide sequence 5′-TCGTCGTTTTGTCGTTTTGTCGTT-3′ (SEQ ID NO:1). The cells were incubated overnight at 37° C. The luciferase substrate Steady-Glo® (Promega) was added to the wells, and luminescence was measured to determine the extent of TLR9-driven gene activation. The luminescence data was used to calculate an IC50 for each sample. The IC50 is defined as the concentration of compound that suppresses the luminescence to 50% of that observed in the absence of compound, in other words, with full stimulation.

[2] = system: mouse spleen IL-6 production in response to Oligo CpG 1668; test: Splenocyte CpG 1668 assay (IL-6 ELISA); details: mouse splenocytes, Oligo CpG 1668, 72 hrs
Description: (2) Splenocyte CpG 1668 Assay: Some of the compounds tested in the primary assay were also assayed for suppression of mouse spleen IL-6 production in response to stimulation with Oligo CpG 1668, a synthetic phosphorothioate oligonucleotide (Krieg et al. Nature. 374:546-9 (1995)), with nucleotide sequence [NT] (SEQ ID NO:2). Each compound was added to dissociated splenocytes before addition of stimulatory oligonucleotide. Cells were stimulated in culture for 72 hrs and the supernatant was removed for ELISA analysis of IL-6 level. Here the IC50 is defined as the concentration of compound that suppresses cytokine production to 50% of that observed in the absence of compound, i.e., full stimulation.

[3] = system: dissociated mouse splenocytes; test: Spleen CellTiter-Glo viability assay; details: Splenocyte, 72 hours, viability (ATP)
Description: (3) Spleen CT Glo Assay: To determine if compounds had adverse effects on living cells, dissociated mouse splenocytes were incubated with some of the compounds for 72 hours. At the end of the incubation Celliter-Glo™ reagent (Promega Corporation, Madison, Wis.) was added and luminescence was read per manufacturer's instructions. This reagent measures ATP as an indication of cell metabolism. Dead cells will not produce signal. IC50 is defined as the concentration of compound that suppresses viability to 50% of that observed in the absence of compound. The few compounds that measurably affected viability did so at concentrations far above those that affected cytokine release in response to TLR9 stimulation.

SMILES | IC50 [1] | IC50 [2] | IC50 [3]
CCN(CC)CCN(C)CCCOc1ccc(-c2nc3ccc(OCCCN(C)CCN(CC)CC)cc3o2)cc1 [Compound 31] | 7.2 nM | 6 nM | > 10000 nM
CN1CCCN(CCCOc2ccc(-c3nc4ccc(OCCCN5CCCN(C)CC5)cc4o3)cc2)CC1 [Compound 14] | 5.6 nM | 4 nM | > 10000 nM
CN(C)[C@@H]1CCN(CCCOc2ccc(-c3nc4ccc(OCCCN5CC[C@@H](N(C)C)C5)cc4o3)cc2)C1 [Compound 16] | 5.5 nM | 8 nM | > 10000 nM
c1cc(-c2nc3ccc(OCCCN4CCCC4)cc3o2)ccc1OCCCN1CCCC1 [Compound 23] | 11.1 nM | 18 nM | > 10000 nM
c1cc(-c2nc3ccc(OCCCN4CCCCC4)cc3o2)ccc1OCCCN1CCCCC1 [Compound 30] | 12.1 nM | 25 nM | > 10000 nM
CN(C)CCCN(C)CCCOc1ccc(-c2nc3ccc(OCCCN(C)CCCN(C)C)cc3o2)cc1 [Compound 27] | 3.4 nM | 4 nM | 8960 nM
c1cc(-c2nc3ccc(OCCCN4CCC(N5CCCC5)CC4)cc3o2)ccc1OCCCN1CCC(N2CCCC2)CC1 [Compound 20] | 12.5 nM | 6 nM | > 10000 nM

Further compounds by falling IC50 [1], results first:

IC50 [1] | IC50 [2] | SMILES | IC50 [3]
15.4 nM | 48 nM | CN(C)CCCOc1ccc(-c2nc3ccc(OCCCN(C)C)cc3o2)cc1 [Compound 2] | > 10000 nM
8.7 nM | 10 nM | CN(C)CCN(C)CCCOc1ccc(-c2nc3ccc(OCCCN(C)CCN(C)C)cc3o2)cc1 [Compound 22] | 7110 nM
7.1 nM | 3 nM | c1cc(CN2CCOCC2)ccc1CNCCCOc1ccc(-c2nc3ccc(OCCCNCc4ccc(CN5CCOCC5)cc4)cc3o2)cc1 [Compound 13] | 7070 nM
5.8 nM | 4 nM | CCN(CC)CCNCCCOc1ccc(-c2nc3ccc(OCCCNCCN(CC)CC)cc3o2)cc1 [Compound 12] | > 10000 nM
4.8 nM | 2 nM | CN1CCN(c2ccc(CNCCCOc3ccc(-c4nc5ccc(OCCCNCc6ccc(N7CCN(C)CC7)cc6)cc5o4)cc3)cc2)CC1 [Compound 11] | 10000 nM
